Measurements: US7763602B2, “Pyrrole derivatives as antimycobacterial compounds” (priority 2002, dated 2010)
≈ marks a conversion by molar mass, not a printed value.

Columns and labels:
Assay type in all cases: cell-based, Mycobacterium tuberculosis
[1] = tested on: M. tuberculosis H37Rv ATCC 27294; test: In vitro growth inhibition assay, BACTEC 460 TB system; design: key: +: If ΔGI of test vial is less than that of the control vial the culture was sensitive to the test compound; details: final concentration 6.25 μg/ml
[2] = tested on: M. tuberculosis clinical isolates, sensitive; test: microbe, parasite or virus in culture; details: for MIC (μg/ml) against Clinical isolates Sensitive: Table I, agar dilution; for MIC: Mycobacterium tuberculosis, read-out: MIC (μg/ml) against Clinical isolates Sensitive
[3] = tested on: M. tuberculosis 27294; test: In vitro agar dilution assay (MIC), reference strain; details: for MIC (μg/ml) against M. tuberculosis-27294: Table I; for MIC: Mycobacterium tuberculosis, 27294, Table I, read-out: MIC (μg/ml) against M. tuberculosis-27294

Row | SMILES | Growth inhibition of M. tuberculosis 27294 [1] | MIC (μg/ml) against Clinical isolates Sensitive [2] | MIC (μg/ml) against M. tuberculosis-27294 [3] | MIC [2] | MIC [3]
1 | Cc1c(CN2CCN(C(c3ccccc3)c3ccccc3)CC2)cc(-c2ccccc2)n1NC(=O)c1cnccn1 [compound 30, N-(3-{[4-(diphenylmethyl)piperazinyl]methyl}-2-methyl-5-phenylpyrrolyl)-pyrazin-2-ylcarboxamide] | + | 2.0 to 4.0 µg/mL | 2.0 µg/mL (≈ 3.69 µM) | – | –
2 | Cc1c(CN2CCN(Cc3ccccc3)CC2)cc(-c2ccccc2)n1NC(=O)c1ccncc1 [compound 15, N-(2-methyl-5-phenyl-3-{[4-benzylpiperazinyl]methyl}pyrrolyl)-4-pyridylcarboxamide] | + | 0.5 to 1.0 µg/mL | 0.5 µg/mL (≈ 1.07 µM) | – | –
3 | Cc1cc(CN2CCN(c3cccc(C(F)(F)F)c3)CC2)c(-c2ccccc2)n1NC(=O)c1cnccn1 [compound 33, N-(3-{[4-(3-trifluoromethylphenyl)piperazinyl]methyl}-5-methyl-2-phenylpyrrolyl)pyrazin-2-ylcarboxamide] | + | 2.0 to 8.0 µg/mL | 2.0 µg/mL (≈ 3.84 µM) | – | –
4 | CCC(CO)n1c(-c2ccccc2)cc(CN2CCSCC2)c1C (stereo not drawn) [compound 91, 2-[2-methyl-5-phenyl-3-(1,4-thiazaperhydroin-4-ylmethyl)pyrrolyl]butan-1-ol] | + | 4.0 to 8.0 µg/mL | 4.0 µg/mL (≈ 11.6 µM) | – | –
5 | Cc1c(CN2CCN(c3ccc(F)cc3)CC2)cc(-c2ccc(Cl)cc2)n1-c1ccc(F)cc1F [compound 44, 1-{[1-(2,4-difluorophenyl)-5-(4-chlorophenyl)-2-methylpyrrol-3-yl]methyl}-4-(4-fluorophenyl)piperazine] | + | – | – | 1 to 2 µg/mL (≈ 2.02 to 4.03 µM) | 1 µg/mL (≈ 2.02 µM)
6 | Cc1c(CN2CCN(C(c3ccccc3)c3ccccc3)CC2)cc(-c2ccc(Cl)cc2)n1-c1ccc(F)cc1F [compound 48, 1-{[1-(2,4-difluorophenyl)-5-(4-chlorophenyl)-2-methylpyrrol-3-yl]methyl}-4-(4-diphenylmethyl)piperazine] | + | >16.0 µg/mL | >16.0 µg/mL | – | –
7 | Cc1cc(CN2CCN(C(c3ccccc3)c3ccccc3)CC2)c(-c2ccccc2)n1NC(=O)c1cnccn1 [compound 36, N-(3-{[4-(diphenylmethyl)piperazinyl]methyl}-5-methyl-2-phenylpyrrolyl) pyrazin-2-ylcarboxamide] | + | 0.5 to 1.0 µg/mL | 0.5 µg/mL (≈ 0.921 µM) | – | –
8 | Cc1c(CN2CCN(c3cccc(C(F)(F)F)c3)CC2)cc(-c2ccc(Cl)cc2)n1NC(=O)c1cnccn1 [compound 39, N-(5-(4-chlorophenyl)-3-{[4-(3-trifluoromethylphenyl)piperazinyl]methyl}-2-methylpyrrolyl)pyrazin-2-ylcarboxamide] | + | 4.0 to 8.0 µg/mL | 4.0 µg/mL (≈ 7.21 µM) | – | –
9 | Cc1c(CN2CCN(c3ccccn3)CC2)cc(-c2ccc(Cl)cc2)n1-c1ccc(Cl)cc1 [compound 4, 1-{[1,5-bis(4-chlorophenyl)-2-methylpyrrol-3-yl]methyl}-4-(2-pyridyl) piperazine] | + | – | – | 0.25 to 1 µg/mL (≈ 0.524 to 2.09 µM) | 0.5 µg/mL (≈ 1.05 µM)
10 | Cc1c(CN2CCN(c3cccc(C(F)(F)F)c3)CC2)cc(-c2ccccc2)n1NC(=O)c1cnccn1 [compound 27, N-(3-{[4-(3-trifluoromethylphenyl)piperazinyl]methyl}-2-methyl-5-phenylpyrrolyl)pyrazin-2-ylcarboxamide] | + | 1.0 to 4.0 µg/mL | 2.0 µg/mL (≈ 3.84 µM) | – | –
11 | Cc1cc(CN2CCN(c3ccc(F)cc3)CC2)c(-c2ccccc2)n1NC(=O)c1ccncc1 [compound 22, N-(3-{[4-(4-fluorophenyl)piperazinyl]methyl}-5-methyl-2-phenylpyrrolyl)-4-pyridylcarboxamide] | + | 2.0 to 4.0 µg/mL | 2.0 µg/mL (≈ 4.26 µM) | – | –
12 | Cc1c(CN2CCN(Cc3ccc4c(c3)OCO4)CC2)cc(-c2ccccc2)n1NC(=O)c1cnccn1 [compound 29, N-(3-{[4-(2H-benzo[d]1,3-dioxolen-5-ylmethyl)piperazinyl]methyl}-2-methyl-5-phenylpyrrolyl)pyrazin-2-ylcarboxamide] | + | >16.0 µg/mL | >16.0 µg/mL | – | –
13 | Cc1cc(CN2CCN(Cc3ccc4c(c3)OCO4)CC2)c(-c2ccccc2)n1NC(=O)c1cnccn1 [compound 35, N-(3-{[4-(2H-benzo[3,4-d]1,3-dioxolan-5-ylmethyl)piperazinyl]methyl}-5-methyl-2-phenylpyrrolyl)pyrazin-2-ylcarboxamide] | + | >16.0 µg/mL | >16.0 µg/mL | – | –
14 | COc1ccccc1N1CCN(Cc2cc(C)n(-c3cccc4ccccc34)c2-c2ccc(Cl)cc2)CC1 [compound 63, 1-{[2-(4-chlorophenyl)-5-methyl-1-naphthylpyrrol-3-yl]methyl}-4-(2-methoxyphenyl)piperazine] | + | 4.0 to 8.0 µg/mL | 8.0 µg/mL (≈ 15.3 µM) | – | –
15 | Cc1c(CN2CCN(c3cccc(C(F)(F)F)c3)CC2)cc(-c2ccc(Cl)cc2)n1-c1ccc(F)cc1F [compound 46, 1-{[1-(2,4-difluorophenyl)-5-(4-chlorophenyl)-2-methylpyrrol-3-yl]methyl}-4-(3-trifluoromethylphenyl)piperazine] | + | – | – | 2 to 4 µg/mL (≈ 3.66 to 7.33 µM) | 2 µg/mL (≈ 3.66 µM)
16 | COc1ccccc1N1CCN(Cc2cc(-c3ccccc3)n(-c3ccc(F)cc3F)c2C)CC1 [compound 52, 1-{[1-(2,4-difluorophenyl)-2-methyl-5-phenylpyrrol-3-yl]methyl}-4-(2-methoxyphenyl)piperazine] | + | – | – | 8 µg/mL (≈ 16.9 µM) | 8 µg/mL (≈ 16.9 µM)
17 | Cc1cc(CN2CCN(c3cccc(C(F)(F)F)c3)CC2)c(-c2ccccc2)n1-c1ccc(F)cc1F [compound 57, 1-{[1-(2,4-difluorophenyl)-5-methyl-2-phenylpyrrol-3-yl]methyl}-4-(3-trifluoromethylphenyl)piperazine] | + | – | – | > 16 µg/mL | > 16 µg/mL
18 | Cc1c(CN2CCN(c3ccccn3)CC2)cc(-c2ccc(Cl)cc2)n1-c1cccc2ccccc12 [compound 61, 1-{[5-(4-chlorophenyl)-2-methyl-1-naphthylpyrrol-3-yl]methyl}-4-(2-pyridyl) piperazine] | + | 4.0 to 8.0 µg/mL | 4.0 µg/mL (≈ 8.11 µM) | – | –
19 | Cc1c(CN2CCN(c3cccc(C(F)(F)F)c3)CC2)cc(-c2ccc(Cl)cc2)n1-c1cccc2ccccc12 [compound 60, 1-{[5-(4-chlorophenyl)-2-methyl-1-naphthylpyrrol-3-yl]methyl}-4-(3-trifluoromethylphenyl)piperazine] | + | 2.0 to 8.0 µg/mL | 4.0 µg/mL (≈ 7.14 µM) | – | –
